Data taken from patent publication US11318077B2, “Retinaldehyde containing compositions and methods of use” (RODAN & FIELDS, LLC, priority 2017, dated 2022).

Assays:
[1] = tested on: mild to moderate lines and wrinkles, dullness and moderate dyschromia; test: Tolerability assessments (subjective and objective), IRS compared with 0.1% Adapalene, 12 weeks; type: in vivo, human (women); settings: IRS vs 0.1% Adapalene
Description: (§1) The objective of the study is to evaluate and compare the anti-aging efficacy and tolerability of 0.1% Adapalene compared to Intensive Renewing Serum over a 12-week period when used by women with mild to moderate lines and wrinkles, dullness and moderate dyschromia.
Subjects reported to the facility at Baseline for Expert Grader assessments of various facial photoaging and irritation parameters, subjective assessments of facial irritation, digital imaging of the face, replica sampling of the crow's foot area, capacitance and firmness/elasticity measurements of the face and completed a self-assessment questionnaire. Subjects were randomized to receive 1 of 2 investigational products for treatment to the entire face for 12 weeks. Subjects returned to the lab at Week 2 and Week 4 to have Expert Grader assessments, digital imaging and self-assessments repeated. At Weeks 8 and 12, subjects returned for Expert Grader assessments, digital imaging, replica sampling, capacitance and firmness/elasticity measurements and self-assessments.
(§2) Expert Grader Assessments: In addition to screening and selecting the final panel, an Expert Grader assessed the face of each subject for various irritation and efficacy parameters at Baseline and after 2, 4, 8 and 12 weeks of treatment. The scale that was used for each assessment parameter (unless otherwise indicated) is: 0=none, 1-3=mild, 4-5=moderate, […].
Irritation parameters: The Expert Grader assessed the face of each subject at each time point for the following irritation parameters using a 0-9 scale: Erythema, Dryness, Scaling, and Edema. Using a 0-9 scale, subjects were asked to rate their amount of: Burning, Stinging, Itching, Tightness, and Dryness.
Treatment Procedures: approximately 20-25 subjects assigned to each product per randomization. After the Baseline assessments and measurements had been completed, the subjects reported to the Treatment Technician, who dispensed a new container of their assigned product to the subject and instructed the subject to apply the product according to the Sponsor's instructions below:
Product C: Morning instructions: Follow your regular morning skincare routine. Evening instructions: Product C should be used once daily in the evening, after your regular cleanser. Open a capsule by twisting off the tail end of one capsule. Apply the serum over your entire face, including under the eyes and crow's feet. […] Avoid getting into eyes, In case of inadvertent eye contact, rinse eyes with plenty of water to remove product from eyes. […] Use one capsule per night. Follow with the rest of your evening skin care Regimen. Note: make sure that no water gets into the jar and that your hands are dry before use. Please ensure the jar is tightly closed after each use.
Product N: Morning instructions: Follow your regular morning skincare routine. Evening instructions: Product N should be used once daily in the evening, after your regular cleanser. Clean the skin gently with your regular cleanser and pat dry before applying Product N. Cover the entire face, including under the eyes and crow's feet, with a thin layer. […] Avoid product contact with eyes, lips and mouth. If contact occurs, immediately flush the area with water. […] Wash hands after use. […] Follow with the rest of your evening skin care Regimen.

[2] = tested on: mild to moderate lines and wrinkles, dullness and moderate dyschromia; test: Expert Grader clinical grading assessment of efficacy, IRS compared with 0.1% Adapalene; type: in vivo, human (women)
Description: as §1, §2
(§3) Efficacy parameters: The assessments of efficacy were made using methods that would provide the Sponsor the most information on changes in the subject's skin over time. The methods that the Expert Grader used to assess efficacy are as follows: 1. Live Grading: Absolute scores from viewing the subject's face were assigned using a 0-9 scale. Live grades were conducted at each time point. 2. Baseline Aided Grading: Absolute scores from viewing the subject's face were assigned using a 0-9 scale at the Baseline visit and the Expert Grader used the subject's Baseline photo for reference at follow-up visits. Baseline aided grading was conducted at each time point other than at Baseline. 3. Comparison Grading from Photos: Comparison grading was performed after the conclusion of the study. The Expert Grader compared the photos from each time point to Baseline for improvement/worsening using the below scale: −4=Marked worsening, −3=Moderate worsening, −2=Mild worsening, −1=Barely perceptible worsening, −0.1=Forced choice worsening, 0=No change, 0.1=Forced choice improvement, 1=Barely perceptible improvement, 2=Mild improvement, 3=Moderate improvement, and 4=Marked improvement.
The following efficacy parameters were assessed by the Expert Grader along with the assessment method(s) are listed: 1. Skin Texture (softness/smoothness) [tactile]: Live grading, 2. Skin Texture [visual]: Live grading/Baseline aided, 3. Fine Lines (eye area including crow's feet): Live grading/Baseline aided/Comparison scores from photos, 4. Wrinkles (eye area, including crows feet): Live grading, Baseline aided, Comparison scores from photos, 5. Pore appearance: Comparison scores from photos, 6. Firmness: Live grading, 7. Sagging (nasolabial fold area): Comparison scores from photos, 8. Discrete hyperpigmentation: Comparison scores from photos, 9. Mottled hyperpigmentation: Comparison scores from photos, 10. Skin tone evenness: Comparison scores from photos, 11. Radiance/luminosity/glow (defined as Dull to luminous/shiny): Live grading, 12. Sallowness (sallow to rosy): Live grading/Baseline aided, 13. Overall healthy skin appearance: Comparison scores from photos, 14. Overall photodamage: Live grading/Baseline aided, 15. Pinch recoil (under the eye): Live grading (For this assessment, a 0-9 score will not be assigned. Per the Sponsor, the evaluator will pinch the subject's skin at the designated site using the thumb and forefinger and hold the skin in place for approximately 2 seconds. A stopwatch will be started upon release and the time required for the subject's skin to return to its original conformation will be measured to the nearest tenth of a second. A decrease in pinch recoil times over time indicates an improvement in skin “bounce-back” or elasticity/resiliency.). […]

[3] = tested on: mild to moderate lines and wrinkles, dullness and moderate dyschromia; test: Comparison grading from photos, IRS compared with 0.1% Adapalene; type: in vivo, human (women)
Description: as §3
The following efficacy parameters were assessed by the Expert Grader along with the assessment method(s) are listed: 1. Skin Texture (softness/smoothness) [tactile]: Live grading, 2. Skin Texture [visual]: Live grading/Baseline aided, 3. Fine Lines (eye area including crow's feet): Live grading/Baseline aided/Comparison scores from photos, 4. […] Pinch recoil (under the eye): Live grading (For this assessment, a 0-9 score will not be assigned. Per the Sponsor, the evaluator will pinch the subject's skin at the designated site using the thumb and forefinger and hold the skin in place for approximately 2 seconds. A stopwatch will be started upon release and the time required for the subject's skin to return to its original conformation will be measured to the nearest tenth of a second. A decrease in pinch recoil times over time indicates an improvement in skin “bounce-back” or elasticity/resiliency.). […]

[4] = tested on: melanin production in MelanoDerm™ skin substitute; test: Melanin-modulatory effect in MelanoDerm skin substitutes (color measurement, melanin extraction); type: cell-based; settings: 2%; 2 weeks
Description: Objective: The objective of this assay was to determine the ability of the test materials (dimethylisosorbide [DMI], retinoic acid [ATRA], 10% w/w NEAR-1 in dimethylisosorbide [NEAR-1], Niacinamide PC [NAD], and Kojic Acid [KA]) and combinations thereof to inhibit melanin production in MelanoDerm™ skin substitute model. The effect of these experimental conditions on the secretion of the proinflammatory cytokine IL-8 was also assessed, as a surrogate for skin irritation potential.
Tissues were equilibrated at 37° C. for 60 min. and undiluted samples (25 μl) of test materials were applied on top of tissues in duplicates. DMI and kojic acid were applied at 2.5% and 2% (w:v) respectively (dissolved in double distilled water). Tissue culture was pursued in the pigmentation-inducing medium EPI-100-NMM-113 for 14 days, with reapplication of test materials and changes of tissue culture media every 2-3 days.
At the end of the experiment, tissue pigmentation was quantified non-invasively with NS800 portable spectrophotometer (3NH Technology Co., Ltd., China). This instrument is a reflectance spectrophotometer that measures reflected light in the visible spectrum (range: 400-700 nm) recording colors in a three-dimensional space known as CIEL*a*b* color space. In this project, the L* value representing the lightness of the color was used for color assessment. For the purpose of this experiment, the range of the L* parameter spanned from 17.8 (black background) to 87.8 (white background).
For melanin quantification, the MelanoDerms were frozen, solubilized in Solvable™ (Perkin Elmer) and melanin was extracted at 95° C. overnight. The colorimetric signals proportional to the concentration of extracted melanin, as well as those proportional to the IL-8 in the tissue-conditioned medium in the ELISA test were quantified with Molecular Devices microplate spectrophotometer MAX190 at 490 nm and 405 nm.

MelanoDerm tissues = test: Cytotoxicity by microscopic observation of MelanoDerm tissues; type: cell-based; settings: 2%; 2 weeks
Description: Tissues were equilibrated at 37° C. for 60 min. and undiluted samples (25 μl) of test materials were applied on top of tissues in duplicates. DMI and kojic acid were applied at 2.5% and 2% (w:v) respectively (dissolved in double distilled water). Tissue culture was pursued in the pigmentation-inducing medium […]-113 for 14 days, with reapplication of test materials and changes of tissue culture media every 2-3 days. Results and Discussion: From the macroscopic documentation of all the MelanoDerm tissues at the end of the experiment, differences of color are clearly visible between the solvent controls and some test materials. Table 34 informs whether cytotoxicity may have played a role in these differences. Table 34 also reports the non-invasive MelanoDerm color measurement performed with portable spectrophotometer. [table]

| SMILES | Burning (subjective) [1] | Dryness (objective, clinical) [1] | Erythema (objective, clinical) [1] | Scaling (objective, clinical) [1] | Stinging (subjective) [1] | Dryness/Tightness (subjective) ([1]; most notably at Week 4) | Elasticity/Resiliency, clinical grading ([2]; by weeks 8 & 12) | Skin Texture (Visual), clinical grading ([2]; by weeks 8 & 12) | Fine Lines, clinical grading ([2]; comparable first 4 weeks, mild improvements by week 8, course to week 12) | Radiance/Luminosity/Glow, clinical grading ([2]; over 12 weeks) | Skin Texture (Tactile), clinical grading ([2]; over 12 weeks) | Photo comparison mean scores (overall) ([3]; IRS vs 0.1% Adapalene) | Discrete Hyperpigmentation, photo comparison ([3]; over 12 weeks) | Mottled Hyperpigmentation, photo comparison ([3]; over 12 weeks) | Color measurement (whitening units) [4] | Melanin Content [4] | Melanin Content (% control) [4] | Raw *L values [4] | Cytotoxicity (MelanoDerm tissues) |
| --- | --- | --- | --- | --- | --- | --- | --- | --- | --- | --- | --- | --- | --- | --- | --- | --- | --- | --- | --- |
| COc1ccc(-c2ccc3cc(C(=O)O)ccc3c2)cc1C12CC3CC(CC(C3)C1)C2 [Adapalene, adapalene] | somewhat greater degree of perceived burning | greater degree of tactile dryness | somewhat greater degree of erythema | greater degree of visual scaling | somewhat greater degree of perceived stinging | slightly greater perception of dryness/tightness | No improvement | slight improvement | remains constant | Mild improvement persists through week 8 | By week 12, no improvement | mean scores slightly favored Adapalene | slightly better results | progressive & slightly better result | – | – | – | – | – |
| O=c1cc(CO)occ1O [KA, Kojic Acid] | – | – | – | – | – | – | – | – | – | – | – | – | – | – | 9.8 whitening units | 38 µg/mL | 38 % control | 55.3 | Yes |
